In ChEMBL document CHEMBL4765227, “Hit to lead optimization of a series of N-[4-(1,3-benzothiazol-2-yl)phenyl]acetamides as monoacylglycerol lipase inhibitors with potential anticancer activity” (Eur J Med Chem, 2016):

How the values were obtained:
Assay type in all cases: functional
Conditions in all cases: read-out: GI
[1] = system: CCRF-CEM; assay: Growth inhibition of human CCRF-CEM cells at 10 uM incubated for 48 hrs by sulforhodamine B assay relative to control
[2] = system: HL-60(TB); assay: Growth inhibition of human HL-60(TB) cells at 10 uM incubated for 48 hrs by sulforhodamine B assay relative to control
[3] = system: K562; assay: Growth inhibition of human K562 cells at 10 uM incubated for 48 hrs by sulforhodamine B assay relative to control
[4] = system: MOLT-4; assay: Growth inhibition of human MOLT-4 cells at 10 uM incubated for 48 hrs by sulforhodamine B assay relative to control
[5] = system: RPMI-8226; assay: Growth inhibition of human RPMI-8226 cells at 10 uM incubated for 48 hrs by sulforhodamine B assay relative to control
[6] = system: A549; assay: Growth inhibition of human A549/ATCC cells at 10 uM incubated for 48 hrs by sulforhodamine B assay relative to control
[7] = system: HOP-62; assay: Growth inhibition of human HOP-62 cells at 10 uM incubated for 48 hrs by sulforhodamine B assay relative to control
[8] = system: HOP-92; assay: Growth inhibition of human HOP-92 cells at 10 uM incubated for 48 hrs by sulforhodamine B assay relative to control
[9] = system: NCI-H226; assay: Growth inhibition of human NCI-H226 cells at 10 uM incubated for 48 hrs by sulforhodamine B assay relative to control
[10] = system: NCI-H322M; assay: Growth inhibition of human NCI-H322M cells at 10 uM incubated for 48 hrs by sulforhodamine B assay relative to control
[11] = system: NCI-H460; assay: Growth inhibition of human NCI-H460 cells at 10 uM incubated for 48 hrs by sulforhodamine B assay relative to control
[12] = system: NCI-H522; assay: Growth inhibition of human NCI-H522 cells at 10 uM incubated for 48 hrs by sulforhodamine B assay relative to control
[13] = system: HCC 2998; assay: Growth inhibition of human HCC 2998 cells at 10 uM incubated for 48 hrs by sulforhodamine B assay relative to control
[14] = system: HCT-116; assay: Growth inhibition of human HCT-116 cells at 10 uM incubated for 48 hrs by sulforhodamine B assay relative to control
[15] = system: HCT-15; assay: Growth inhibition of human HCT-15 cells at 10 uM incubated for 48 hrs by sulforhodamine B assay relative to control
[16] = system: HT-29; assay: Growth inhibition of human HT-29 cells at 10 uM incubated for 48 hrs by sulforhodamine B assay relative to control
[17] = system: KM12; assay: Growth inhibition of human KM12 cells at 10 uM incubated for 48 hrs by sulforhodamine B assay relative to control
[18] = system: SW-620; assay: Growth inhibition of human SW-620 cells at 10 uM incubated for 48 hrs by sulforhodamine B assay relative to control
[19] = system: SNB-19; assay: Growth inhibition of human SNB-19 cells at 10 uM incubated for 48 hrs by sulforhodamine B assay relative to control
[20] = system: SNB-75; assay: Growth inhibition of human SNB-75 cells at 10 uM incubated for 48 hrs by sulforhodamine B assay relative to control
[21] = system: U-251; assay: Growth inhibition of human U-251 cells at 10 uM incubated for 48 hrs by sulforhodamine B assay relative to control
[22] = system: Malme-3M; assay: Growth inhibition of human Malme-3M cells at 10 uM incubated for 48 hrs by sulforhodamine B assay relative to control
[23] = system: M14; assay: Growth inhibition of human M14 cells at 10 uM incubated for 48 hrs by sulforhodamine B assay relative to control
[24] = system: MDA-MB-435; assay: Growth inhibition of human MDA-MB-435 cells at 10 uM incubated for 48 hrs by sulforhodamine B assay relative to control
[25] = system: SK-MEL-28; assay: Growth inhibition of human SK-MEL-28 cells at 10 uM incubated for 48 hrs by sulforhodamine B assay relative to control
[26] = system: SK-MEL-5; assay: Growth inhibition of human SK-MEL-5 cells at 10 uM incubated for 48 hrs by sulforhodamine B assay relative to control
[27] = system: UACC-62; assay: Growth inhibition of human UACC-62 cells at 10 uM incubated for 48 hrs by sulforhodamine B assay relative to control
[28] = system: IGROV-1; assay: Growth inhibition of human IGROV-1 cells at 10 uM incubated for 48 hrs by sulforhodamine B assay relative to control
[29] = system: OVCAR-5; assay: Growth inhibition of human OVCAR-5 cells at 10 uM incubated for 48 hrs by sulforhodamine B assay relative to control
[30] = system: OVCAR-8; assay: Growth inhibition of human OVCAR-8 cells at 10 uM incubated for 48 hrs by sulforhodamine B assay relative to control
[31] = system: NCI/ADR-RES; assay: Growth inhibition of human NCI/ADR-RES cells at 10 uM incubated for 48 hrs by sulforhodamine B assay relative to control
[32] = system: SK-OV-3; assay: Growth inhibition of human SK-OV-3 cells at 10 uM incubated for 48 hrs by sulforhodamine B assay relative to control
[33] = system: ACHN; assay: Growth inhibition of human ACHN cells at 10 uM incubated for 48 hrs by sulforhodamine B assay relative to control
[34] = system: CAKI-1; assay: Growth inhibition of human CAKI-1 cells at 10 uM incubated for 48 hrs by sulforhodamine B assay relative to control
[35] = system: RXF 393; assay: Growth inhibition of human RXF 393 cells at 10 uM incubated for 48 hrs by sulforhodamine B assay relative to control
[36] = system: SN12C; assay: Growth inhibition of human SN12C cells at 10 uM incubated for 48 hrs by sulforhodamine B assay relative to control
[37] = system: TK-10; assay: Growth inhibition of human TK-10 cells at 10 uM incubated for 48 hrs by sulforhodamine B assay relative to control
[38] = system: UO-31; assay: Growth inhibition of human UO-31 cells at 10 uM incubated for 48 hrs by sulforhodamine B assay relative to control
[39] = system: PC-3; assay: Growth inhibition of human PC-3 cells at 10 uM incubated for 48 hrs by sulforhodamine B assay relative to control
[40] = system: DU-145; assay: Growth inhibition of human DU-145 cells at 10 uM incubated for 48 hrs by sulforhodamine B assay relative to control
[41] = system: MDA-MB-231; assay: Growth inhibition of human MDA-MB-231 cells at 10 uM incubated for 48 hrs by sulforhodamine B assay relative to control
[42] = system: BT-549; assay: Growth inhibition of human BT-549 cells at 10 uM incubated for 48 hrs by sulforhodamine B assay relative to control
[43] = system: T47D; assay: Growth inhibition of human T47D cells at 10 uM incubated for 48 hrs by sulforhodamine B assay relative to control
[44] = system: MDA-MB-468; assay: Growth inhibition of human MDA-MB-468 cells at 10 uM incubated for 48 hrs by sulforhodamine B assay relative to control

SMILES: O=C(Cn1c2ccccc2c2ccccc21)Nc1ccc(-c2nc3ccccc3s2)cc1
- inhibition of growth at 10 µM [1]: -5.65%
- inhibition of growth at 10 µM [2]: -3.61%
- inhibition of growth at 10 µM [3]: 4.71%
- inhibition of growth at 10 µM [4]: 5.92%
- inhibition of growth at 10 µM [5]: -18%
- inhibition of growth at 10 µM [6]: 0.89%
- inhibition of growth at 10 µM [7]: -0.99%
- inhibition of growth at 10 µM [8]: -7.01%
- inhibition of growth at 10 µM [9]: 1.21%
- inhibition of growth at 10 µM [10]: -5.2%
- inhibition of growth at 10 µM [11]: -1.93%
- inhibition of growth at 10 µM [12]: 3.42%
- inhibition of growth at 10 µM [13]: 0.28%
- inhibition of growth at 10 µM [14]: -7.02%
- inhibition of growth at 10 µM [15]: -0.3%
- inhibition of growth at 10 µM [16]: -6.06%
- inhibition of growth at 10 µM [17]: 0.15%
- inhibition of growth at 10 µM [18]: -2.44%
- inhibition of growth at 10 µM [19]: -4.51%
- inhibition of growth at 10 µM [20]: 3.22%
- inhibition of growth at 10 µM [21]: 6.01%
- inhibition of growth at 10 µM [22]: 6.83%
- inhibition of growth at 10 µM [23]: -14%
- inhibition of growth at 10 µM [24]: -1.43%
- inhibition of growth at 10 µM [25]: -7.99%
- inhibition of growth at 10 µM [26]: 6.47%
- inhibition of growth at 10 µM [27]: 4.66%
- inhibition of growth at 10 µM [28]: 13.4%
- inhibition of growth at 10 µM [29]: 0.62%
- inhibition of growth at 10 µM [30]: -2.86%
- inhibition of growth at 10 µM [31]: -1.93%
- inhibition of growth at 10 µM [32]: -7.77%
- inhibition of growth at 10 µM [33]: -4.15%
- inhibition of growth at 10 µM [34]: 1.03%
- inhibition of growth at 10 µM [35]: -10.8%
- inhibition of growth at 10 µM [36]: -1.32%
- inhibition of growth at 10 µM [37]: -1.97%
- inhibition of growth at 10 µM [38]: 12.8%
- inhibition of growth at 10 µM [39]: -4.16%
- inhibition of growth at 10 µM [40]: -2.93%
- inhibition of growth at 10 µM [41]: 4.37%
- inhibition of growth at 10 µM [42]: -5.6%
- inhibition of growth at 10 µM [43]: 15.5%
- inhibition of growth at 10 µM [44]: 83.4%

SMILES: O=C(Cn1ccc2ccccc21)Nc1ccc(-c2nc3ccccc3s2)cc1
- inhibition of growth at 10 µM [1]: 2.97%
- inhibition of growth at 10 µM [2]: 0.1%
- inhibition of growth at 10 µM [3]: -3.37%
- inhibition of growth at 10 µM [4]: 5.48%
- inhibition of growth at 10 µM [5]: 0%
- inhibition of growth at 10 µM [6]: 1.71%
- inhibition of growth at 10 µM [7]: -3.42%
- inhibition of growth at 10 µM [8]: -4.8%
- inhibition of growth at 10 µM [9]: -2.24%
- inhibition of growth at 10 µM [10]: 1.19%
- inhibition of growth at 10 µM [11]: -4.62%
- inhibition of growth at 10 µM [12]: -1.58%
- inhibition of growth at 10 µM [13]: -3.48%
- inhibition of growth at 10 µM [14]: -1.55%
- inhibition of growth at 10 µM [15]: -10.2%
- inhibition of growth at 10 µM [16]: -14.7%
- inhibition of growth at 10 µM [17]: -6.39%
- inhibition of growth at 10 µM [18]: -6.47%
- inhibition of growth at 10 µM [19]: 1.41%
- inhibition of growth at 10 µM [20]: 6.21%
- inhibition of growth at 10 µM [21]: 2.41%
- inhibition of growth at 10 µM [22]: -8.06%
- inhibition of growth at 10 µM [23]: -8.41%
- inhibition of growth at 10 µM [24]: -3.52%
- inhibition of growth at 10 µM [25]: -13.7%
- inhibition of growth at 10 µM [26]: 1.44%
- inhibition of growth at 10 µM [27]: 5.01%
- inhibition of growth at 10 µM [28]: 26.2%
- inhibition of growth at 10 µM [29]: -3.94%
- inhibition of growth at 10 µM [30]: -4.73%
- inhibition of growth at 10 µM [31]: -0.33%
- inhibition of growth at 10 µM [32]: -1.65%
- inhibition of growth at 10 µM [33]: -10.9%
- inhibition of growth at 10 µM [34]: -0.29%
- inhibition of growth at 10 µM [35]: -12.6%
- inhibition of growth at 10 µM [36]: -1.09%
- inhibition of growth at 10 µM [37]: -3.65%
- inhibition of growth at 10 µM [38]: 7.58%
- inhibition of growth at 10 µM [39]: 2.02%
- inhibition of growth at 10 µM [40]: -0.67%
- inhibition of growth at 10 µM [41]: -7.77%
- inhibition of growth at 10 µM [42]: -5.34%
- inhibition of growth at 10 µM [43]: 9.38%
- inhibition of growth at 10 µM [44]: 150%
